Source: patent US20070128217A1 (priority 2003, published 2007)

Legend:
[1] = system: rabbit serum obtained by immunizing a rabbit with the SARS-CoV strain Frankfurt 1; format: binding; design: Binding of a rabbit serum to linear peptides / Binding of a rabbit serum to looped peptides / Rabbit serum linear peptides / Rabbit serum looped peptides / Binding of a rabbit serum to linear peptides of protein N of SARS-CoV Urbani (Rabbit serum linear peptides) / Binding of a rabbit serum to looped/cyclic peptides of protein N of SARS-CoV Urbani (Rabbit serum looped peptides): unit not given here
[2] = system: antibodies in sera from SARS patients (sera 1a, 1b, 2, 6, 37, 62, London, SARS-yellow, SARS-green); format: binding, human; design: Binding of serum 6 to linear peptides of protein X1 of SARS-CoV Urbani / Binding of serum 37 to linear peptides of protein X1 of SARS-CoV Urbani / Binding of serum 6 to looped/cyclic peptide (PEPSCAN-ELISA) / Binding of serum 37 to looped/cyclic peptide (PEPSCAN-ELISA) / Binding of serum 37 to looped/cyclic peptides of protein X1 of SARS-CoV Urbani / Binding of serum 6 to linear peptides of protein X2 / Binding of serum 37 to linear peptides of protein X2 / Binding of serum 37 to looped/cyclic peptides of protein X2 of SARS-CoV Urbani / Binding of serum 6 to linear peptides of protein M of SARS-CoV Urbani / Binding of serum 37 to linear peptides of protein M of SARS-CoV Urbani / Binding of serum 6 to looped/cyclic peptides of protein M of SARS-CoV Urbani / Binding of serum 37 to looped/cyclic peptides of protein M of SARS-CoV Urbani / Binding of serum 6 to linear peptides of protein X3 of SARS-CoV Urbani / Binding of serum 37 to linear peptides of protein X3 of SARS-CoV Urbani / Binding of serum 37 to looped/cyclic peptides of protein X3 of SARS-CoV Urbani / Binding of serum 6 to linear peptides of protein X4 of SARS-CoV Urbani / Binding of serum 37 to linear peptides of protein X4 of SARS-CoV Urbani / Binding of serum 37 to looped/cyclic peptides of protein X4 of SARS-CoV Urbani / Binding of serum 6 to linear peptides of protein X5 of SARS-CoV Urbani / Binding of serum 37 to linear peptides of protein X5 of SARS-CoV Urbani / Binding of serum 37 to looped/cyclic peptides of protein X5 of SARS-CoV Urbani / Binding of serum 6 to linear peptides of protein N of SARS-CoV Urbani / Binding of serum 37 to linear peptides of protein N of SARS-CoV Urbani / Binding of serum 6 to linear peptide (PEPSCAN-ELISA) / Binding of serum 1a to looped/cyclic peptides of protein N of SARS-CoV Urbani / Binding of serum 1b to looped/cyclic peptides of protein N of SARS-CoV Urbani / Binding of serum 2 to looped/cyclic peptides of protein N of SARS-CoV Urbani / Binding of serum 6 to looped/cyclic peptides of protein N of SARS-CoV Urbani / Binding of serum 37 to looped/cyclic peptides of protein N of SARS-CoV Urbani / Binding of serum 62 to looped/cyclic peptides of protein N of SARS-CoV Urbani / Binding of serum London to looped/cyclic peptides of protein N of SARS-CoV Urbani / Binding of serum SARS-green to looped/cyclic peptides of protein N of SARS-CoV Urbani: unit not given here
[3] = system: control sera (pooled serum of ten healthy LUMC hospital workers; commercial negative donor pooled serum from the Dutch bloodbank); format: binding, human; design: Binding of Control serum LUMC to linear peptides / Binding of Control serum Blood-bank to linear peptides / Binding of Control serum LUMC to looped peptides / Binding of Control Serum Blood-Bank to Looped peptides / Binding of Control serum LUMC to linear peptides of the protein M of SARS-CoV Urbani / Binding of Control serum Blood-bank to linear peptides of the protein M of SARS-CoV Urbani / Binding of Control serum LUMC to looped peptides of the protein M of SARS-CoV Urbani / Binding of Control Serum Blood-Bank to Looped peptides of the protein M of SARS-CoV Urbani: unit not given here

IIKLVFLWLLWPVTL
Rabbit serum linear peptides [1]: 0.1
Rabbit serum looped peptides [1]: 0.0
Binding of serum 1a to linear peptides of protein M of SARS-CoV Urbani [2]: 0.7
Binding of serum 1a to looped/cyclic peptides of protein M of SARS-CoV Urbani [2]: 0.6
Binding of serum 1b to linear peptides of protein M of SARS-CoV Urbani [2]: 0.5
Binding of serum 1b to looped/cyclic peptides of protein M of SARS-CoV Urbani [2]: 0.7
Binding of serum 2 to linear peptides of protein M of SARS-CoV Urbani [2]: 0.4
Binding of serum 2 to looped/cyclic peptides of protein M of SARS-CoV Urbani [2]: 0.5
Binding of serum 6 to linear peptides of protein M of SARS-CoV Urbani [2]: 0.4
Binding of serum 6 to looped/cyclic peptides of protein M of SARS-CoV Urbani [2]: 0.5
Binding of serum 37 to linear peptides of protein M of SARS-CoV Urbani [2]: 0.3
Binding of serum 37 to looped/cyclic peptides of protein M of SARS-CoV Urbani [2]: 0.5
Binding of serum 62 to linear peptides of protein M of SARS-CoV Urbani [2]: 0.3
Binding of serum 62 to looped/cyclic peptides of protein M of SARS-CoV Urbani [2]: 0.6
Binding of serum London to linear peptides of protein M of SARS-CoV Urbani [2]: 0.3
Binding of serum London to looped/cyclic peptides of protein M of SARS-CoV Urbani [2]: 0.2
Binding of serum SARS-green to linear peptides of protein M of SARS-CoV Urbani [2]: 0.4
Binding of serum SARS-green to looped/cyclic peptides of protein M of SARS-CoV Urbani [2]: 0.3
Binding of serum SARS-yellow to linear peptides of protein M of SARS-CoV Urbani [2]: 0.2
Binding of serum SARS-yellow to looped/cyclic peptides of protein M of SARS-CoV Urbani [2]: 0.4
Binding of Control Serum Blood-Bank to Looped peptides of the protein M of SARS-CoV Urbani [3]: 0.7
Binding of Control serum Blood-bank to linear peptides of the protein M of SARS-CoV Urbani [3]: 0.5
Binding of Control serum LUMC to linear peptides of the protein M of SARS-CoV Urbani [3]: 0.6
Binding of Control serum LUMC to looped peptides of the protein M of SARS-CoV Urbani [3]: 0.6

IILFLTLIVFTSCEL
Rabbit serum linear peptides [1]: 0.8
Rabbit serum looped peptides [1]: 0.5
Binding of serum 1a to linear peptides of protein X4 of SARS-CoV Urbani [2]: 0.8
Binding of serum 1a to looped/cyclic peptides of protein X4 of SARS-CoV Urbani [2]: 0.7
Binding of serum 1b to linear peptides of protein X4 of SARS-CoV Urbani [2]: 0.8
Binding of serum 1b to looped/cyclic peptides of protein X4 of SARS-CoV Urbani [2]: 0.1
Binding of serum 2 to linear peptides of protein X4 of SARS-CoV Urbani [2]: 0.6
Binding of serum 2 to looped/cyclic peptides of protein X4 of SARS-CoV Urbani [2]: 0.6
Binding of serum 6 to linear peptides of protein X4 of SARS-CoV Urbani [2]: 0.5
Binding of serum 6 to looped/cyclic peptides of protein X4 of SARS-CoV Urbani [2]: 0.5
Binding of serum 37 to linear peptides of protein X4 of SARS-CoV Urbani [2]: 0.9
Binding of serum 37 to looped/cyclic peptides of protein X4 of SARS-CoV Urbani [2]: 0.7
Binding of serum 62 to linear peptides of protein X4 of SARS-CoV Urbani [2]: 0.8
Binding of serum 62 to looped/cyclic peptides of protein X4 of SARS-CoV Urbani [2]: 0.7
Binding of serum London to linear peptides of protein X4 of SARS-CoV Urbani [2]: 0.7
Binding of serum London to looped/cyclic peptides of protein X4 of SARS-CoV Urbani [2]: 0.2
Binding of serum SARS-green to linear peptides of protein X4 of SARS-CoV Urbani [2]: 0.6
Binding of serum SARS-green to looped/cyclic peptides of protein X4 of SARS-CoV Urbani [2]: 0.4
Binding of serum SARS-yellow to linear peptides of protein X4 of SARS-CoV Urbani [2]: 0.7
Binding of serum SARS-yellow to looped/cyclic peptides of protein X4 of SARS-CoV Urbani [2]: 0.6
Binding of Control Serum Blood-Bank to Looped peptides [3]: 0.7
Binding of Control serum Blood-bank to linear peptides [3]: 0.7
Binding of Control serum LUMC to linear peptides [3]: 0.9
Binding of Control serum LUMC to looped peptides [3]: 0.6

ILLNVPLRGTIVTRP
Rabbit serum linear peptides [1]: 0.0
Rabbit serum looped peptides [1]: 0.2
Binding of serum 1a to linear peptides of protein M of SARS-CoV Urbani [2]: 0.6
Binding of serum 1b to linear peptides of protein M of SARS-CoV Urbani [2]: 0.4
Binding of serum 2 to linear peptides of protein M of SARS-CoV Urbani [2]: 0.4
Binding of serum 6 to linear peptides of protein M of SARS-CoV Urbani [2]: 0.2
Binding of serum 37 to linear peptides of protein M of SARS-CoV Urbani [2]: 0.4
Binding of serum 62 to linear peptides of protein M of SARS-CoV Urbani [2]: 0.4
Binding of serum London to linear peptides of protein M of SARS-CoV Urbani [2]: 0.3
Binding of serum SARS-green to linear peptides of protein M of SARS-CoV Urbani [2]: 0.4
Binding of serum SARS-yellow to linear peptides of protein M of SARS-CoV Urbani [2]: 0.2
Recognition of the peptide by sera of SARS-CoV infected individuals, and form (linear, looped/cyclic) in which it is recognized [2]: recognized in looped/cyclic form
Binding of Control Serum Blood-Bank to Looped peptides of the protein M of SARS-CoV Urbani [3]: 0.5
Binding of Control serum Blood-bank to linear peptides of the protein M of SARS-CoV Urbani [3]: 0.6
Binding of Control serum LUMC to linear peptides of the protein M of SARS-CoV Urbani [3]: 0.4
Binding of Control serum LUMC to looped peptides of the protein M of SARS-CoV Urbani [3]: 0.5

ILVRYNTRGNTYSTA
Rabbit serum linear peptides [1]: 0.9
Rabbit serum looped peptides [1]: 0.8
Binding of serum 1a to linear peptides of protein X5 of SARS-CoV Urbani [2]: 0.7
Binding of serum 1a to looped/cyclic peptides of protein X5 of SARS-CoV Urbani [2]: 0.5
Binding of serum 1b to linear peptides of protein X5 of SARS-CoV Urbani [2]: 0.4
Binding of serum 1b to looped/cyclic peptides of protein X5 of SARS-CoV Urbani [2]: 0.3
Binding of serum 2 to linear peptides of protein X5 of SARS-CoV Urbani [2]: 0.6
Binding of serum 2 to looped/cyclic peptides of protein X5 of SARS-CoV Urbani [2]: 0.6
Binding of serum 6 to linear peptides of protein X5 of SARS-CoV Urbani [2]: 0.7
Binding of serum 6 to looped/cyclic peptides of protein X5 of SARS-CoV Urbani [2]: 0.6
Binding of serum 37 to linear peptides of protein X5 of SARS-CoV Urbani [2]: 0.6
Binding of serum 37 to looped/cyclic peptides of protein X5 of SARS-CoV Urbani [2]: 0.4
Binding of serum 62 to linear peptides of protein X5 of SARS-CoV Urbani [2]: 0.7
Binding of serum 62 to looped/cyclic peptides of protein X5 of SARS-CoV Urbani [2]: 0.8
Binding of serum London to linear peptides of protein X5 of SARS-CoV Urbani [2]: 0.6
Binding of serum London to looped/cyclic peptides of protein X5 of SARS-CoV Urbani [2]: 0.2
Binding of serum SARS-green to linear peptides of protein X5 of SARS-CoV Urbani [2]: 0.5
Binding of serum SARS-green to looped/cyclic peptides of protein X5 of SARS-CoV Urbani [2]: 0.3
Binding of serum SARS-yellow to linear peptides of protein X5 of SARS-CoV Urbani [2]: 0.2
Binding of serum SARS-yellow to looped/cyclic peptides of protein X5 of SARS-CoV Urbani [2]: 0.8
Binding of Control Serum Blood-Bank to Looped peptides [3]: 0.4
Binding of Control serum Blood-bank to linear peptides [3]: 0.7
Binding of Control serum LUMC to linear peptides [3]: 0.5
Binding of Control serum LUMC to looped peptides [3]: 0.6

IPLQASLPFGWLVIG
Binding of a rabbit serum to linear peptides [1]: 0.1
Binding of a rabbit serum to looped peptides [1]: 0.5
Binding of serum 1a to linear peptides of protein X1 of SARS-CoV Urbani [2]: 0.8
Binding of serum 1a to looped/cyclic peptide (PEPSCAN-ELISA) [2]: 0.6
Binding of serum 1b to linear peptides of protein X1 of SARS-CoV Urbani [2]: 0.6
Binding of serum 1b to looped/cyclic peptide (PEPSCAN-ELISA) [2]: 0.4
Binding of serum 2 to linear peptides of protein X1 of SARS-CoV Urbani [2]: 0.6
Binding of serum 2 to looped/cyclic peptide (PEPSCAN-ELISA) [2]: 0.4
Binding of serum 6 to linear peptides of protein X1 of SARS-CoV Urbani [2]: 0.5
Binding of serum 6 to looped/cyclic peptide (PEPSCAN-ELISA) [2]: 0.3
Binding of serum 37 to linear peptides of protein X1 of SARS-CoV Urbani [2]: 0.7
Binding of serum 37 to looped/cyclic peptide (PEPSCAN-ELISA) [2]: 0.5
Binding of serum 62 to linear peptides of protein X1 of SARS-CoV Urbani [2]: 0.6
Binding of serum 62 to looped/cyclic peptide (PEPSCAN-ELISA) [2]: 0.6
Binding of serum London to linear peptides of protein X1 of SARS-CoV Urbani [2]: 0.3
Binding of serum London to looped/cyclic peptide (PEPSCAN-ELISA) [2]: 0.2
Binding of serum SARS-green to linear peptides of protein X1 of SARS-CoV Urbani [2]: 0.4
Binding of serum SARS-green to looped/cyclic peptide (PEPSCAN-ELISA) [2]: 0.3
Binding of serum SARS-yellow to linear peptides of protein X1 of SARS-CoV Urbani [2]: 0.5
Binding of serum SARS-yellow to looped/cyclic peptide (PEPSCAN-ELISA) [2]: 0.3
Binding of Control Serum Blood-Bank to Looped peptides [3]: 0.6
Binding of Control serum Blood-bank to linear peptides [3]: 0.7
Binding of Control serum LUMC to linear peptides [3]: 0.8
Binding of Control serum LUMC to looped peptides [3]: 0.6
